Experimental data reported in patent publication EP0227593A1, “Use of chelating agents” (THE HOSPITAL FOR SICK CHILDREN, priority 1985, dated 1987).

Legend:
[1] = test system: PB leukemia cell colonies; assay: Surface marker analysis of leukemia cell colonies grown with deferoxamine (immunocytochemical assay); assay type: cell-based, human; set-up: key to Ia intensity of staining / B4 intensity of staining / OKM1 intensity of staining / MY-4 intensity of staining: strong (+++); moderate (++); weak (+); conditions: colonies from cultures containing 2.5 µM deferoxamine
Method: (§1) Cell Culture Procedure: 2 x 10⁵ T-depleted cells were incubated with 40 % RPMI-methylcellulose, 20 % PHA-LCM, 10 % FCS, irradiated feeder cells (10⁵/dish), 16.6 % RPMI in 35 mm Petri dishes. The culture dishes were placed into a specialized modular incubator chamber (Billups-Rosenberg, Del Mar, CA) in a humidified atmosphere of 5 % O₂, 5 % CO₂ and balanced nitrogen for 3-6 days. After 2 days of incubation, the culture dishes were carefully examined. Colonies were counted at day 4. A cluster of more than 20 cells was defined as a colony. Individual colonies were plucked from the culture plates and smeared on microscope slides for further evaluation, using Wright stain and non-specific esterase staining. For control, 2 x 10⁵ irradiated feeder cells were cultured in the same assay system in each experiment to exclude their potential for colony formation Immunocytochemical Method: The cell surface antigens of air dried smears were detected using monoclonal antibodies and intestinal alkaline phosphatase, as previously described. This assay was performed to detect surface antigens on patients' PB and BM smears and colonies plucked from cultures. The slides were counter- stained in hematoxylin for light microscopy and the presence of surface antigen was indicated as bright red granular cellular inclusions. Morphologic details were well preserved, and a very high degree of correlation between morphology and surface antigen expression was observed. The intensity of staining was defined as strong (+++), moderate (++) and weak (+). Immunofluorescence Method: The cell surface phenotype was determined by indirect cell-surface fluorescence: A fluorescein-conjugated goat anti-mouse IgG (FAb')₂ was used as second antibody. The labelling was performed at room temperature in the presence of 0.2 % sodium azide. The percentage of cells with surface fluorescence was determined by counting cells stained in three replicate wells using an inverted phase-fluorescent microscope. Monoclonal Antibodies: The following monoclonal antibodies were used in these studies: anti-OKIa (Ortho Diagnostic Systems Inc. Raritan, NJ) to detect HLA-D framework antigen, anti-MY-7, anti-Mol and anti-MY-4 (coulter Immunology) to identify myelomonocytic markers, anti-Ig. anti-BA1, anti-BA2, anti-B1, and anti-B4 (Becton-Dickinson) to recognize cells of the B-cell lineage, anti-J5 (Coulter Immunology) to recognize cells bearing common ALL (CALLA) antigen and anti-Leu-1 and anti-Leu-4 (Coulter Immunology) to recognize cells of the T-cell lineage.
DFO and Blast Cell Differentiation: Individual blast colonies from the culture plates containing DFO 2.5 µM were characterized (Table 2). Compared to colonies grown without exposure to DFO, a marked change in cell surface antigen expression was observed.
PB leukemia cell colonies were plucked at random from cultures containing 2.5 µM deferoxamine compared to cultures without deferoxamine using the immunocytochemical assay.

[2] = test system: peripheral blood blast cell numbers; assay: 20-day experimental treatment protocol in a leukemia patient: WBC and blast counts; assay type: in vivo, human
Method: With informed consent and following an approval by the Human Experimentation Committee of our institution, an experimental protocol was initiated: DFO, dissolved in sterile water was given by continuous infusion of 10 mg/kg/hour; cytosine arabinoside (Ara-C) dissolved in saline was given by i.v. push, 5 mg/kg/dose. When used consecutively, DFO was stopped 8-12 hours prior to cytosine arabinoside.
Deferoxamine (DFO) was given by continuous infusion 10 mg/kg/hr Cytosine-arabinoside (Ara-C) was given by i.v. push, 5 mg/kg/dose.

[3] = test system: peripheral blood blast cells; assay: Surface marker analysis on PB smears before and after 48 hours of deferoxamine treatment (immunocytochemical method); assay type: in vivo, human; set-up: key to Ia intensity of staining / OKM1 intensity of staining / MY-4 intensity of staining: strong (+++); moderate (++); weak (+); conditions: PB smears after 48 hours of deferoxamine treatment
Method: as §1
DFO and Blast Cell Differentiation: After 48 hours of continuous infusion of DFO as a single agent, striking changes in blast cell surface markers were detected immunocytochemically (Table 3). Prior to treatment, no blasts expressed OKM1 antigen, and only 8 % weakly expressed MY-4. After 48 hours, these two antigens were strongly detected in peripheral blood blast cells. Concomitantly with DFO therapy, there was a sharp decline from 37 % to 0 % of cells bearing B₄ antigen.
Immunologic surface markers were dermined before and after 48 hours of deferoxamine treatment on PB smears using the immunocytochemical method

[4] = test system: bone marrow cells; assay: Surface marker analysis by immunofluorescence on bone marrow cells at conclusion of the 20-day treatment; assay type: in vivo, human; conditions: conclusion of 20-day treatment course
Method: as §1
Immunologic surface markers were determined by immunofluorescence before and at the conclusion of the 20-day treatment course on bone marrow cells.

[5] = test system: blasts; assay: Marrow aspirate and cytochemistry at conclusion of the 20-day treatment protocol; assay type: in vivo, human
From the text: In contrast to the marrow aspirate prior to DFO therapy, 60 % of the blasts were positive for non-specific esterase and staining could be inhibited by fluoride.

[6] = test system: L-1210 tumour cells; assay: L-1210 tumour growth in mice; assay type: in vivo; conditions: day 8
Method: One hour prior to kill on day 8 the mice received one ip injection of 0.002 mCi of 3H-thymidine per g body weight. Cells were harvested from the peritoneal cavity, the volume of ascites measured and the cell counts determined in a coulter counter, after lysis of red cells with zap-oglobin, for calculation of total tumour cell numbers. Also, of each sample cell smears were done, Feulgen stained and autoradiographed, whereby the number and percentage of labelled cells was determined and used as a measure for proliferating cells.

[7] = Day 1, DFO continuous infusion 10 mg/kg/hr, 24 h
[8] = Day 3, after first 48 hours of DFO, Ara-C starts Day 3
[9] = DFO 400 mg/kg/d s.c. minipump from day 2, Ara-C 200 mg/kg once ip on day 6

## CC(=O)N(O)CCCCCNC(=O)CCC(=O)N(O)CCCCCNC(=O)CCC(=O)N(O)CCCCCN [DFO, desferioxamine methanesulfonate]
[1]
  B4 Positive: 30%
  B4 intensity of staining: +++
  CALLA Positive: 0%
  Ia Positive: 80%
  Ia intensity of staining: +++
  Leu-1 Positive: 0%
  Leu-4 Positive: 0%
  MY-4 Positive: 60%
  MY-4 intensity of staining: ++
  OKM1 Positive: > 90%
  OKM1 intensity of staining: +++
[2]; [7]
  Blasts: 4.22e+10 L⁻¹
  WBC: 6.25e+10 L⁻¹
[2]; [8]
  Blasts: 4.09e+10 L⁻¹
  WBC: 6.39e+10 L⁻¹
[3]
  B4 positive cells: 0%
  CALLA positive cells: 0%
  Ia intensity of staining: +++
  Ia positive cells: 80%
  Leu-1 positive cells: 0%
  Leu-4 positive cells: 0%
  MY-4 intensity of staining: +++
  MY-4 positive cells: 60%
  OKM1 intensity of staining: +++
  OKM1 positive cells: 40%
[4]
  % Positive Cells B4: 10%
  % Positive Cells BA-1: 0%
  % Positive Cells BA-2: 0%
  % Positive Cells Ia: 75%
  % Positive Cells MY-4: 20%
  % Positive Cells MY-7: 20%
  % Positive Cells Mo1: 20%
  % Positive Cells sIg: 0%
[5]; conclusion of the 20-day treatment protocol (DFO and Ara-C)
  blasts in marrow aspirate: 60%
[5]; marrow aspirate, conclusion of the 20-day treatment protocol
  blasts positive for non-specific esterase: 60%
[6]; 3H-thymidine labelled cells, same doses as Table 12
  proportions of proliferating cells: 28 % ± 8%
[6]; [9]
  Number of cells in the peritoneal cavity % of control: 95%
  Number of cells in the peritoneal cavity x̄ ± SD: 3.49 ± 1.75 10^8
  Number of proliferating cells in peritoneal cavity % of control: 80%
  Number of proliferating cells in peritoneal cavity x̄ ± SD: 0.98 ± 0.64 10^8
